Source: patent US12275731B2, “Azaindole inhibitors of wild-type and mutant forms of LRRK2” (DANA-FARBER CANCER INSTITUTE, INC., priority 2018, dated 2025)

How the values were obtained:
Assay in all cases: KinomeScan profiling
Type in all cases: binding
IKK-beta = target: T1, IKK-beta (Homo sapiens, UniProt O14920); settings: read-out: % control
T1 construct: purchased KinomeScan®
T1 sequence (O14920 1-756): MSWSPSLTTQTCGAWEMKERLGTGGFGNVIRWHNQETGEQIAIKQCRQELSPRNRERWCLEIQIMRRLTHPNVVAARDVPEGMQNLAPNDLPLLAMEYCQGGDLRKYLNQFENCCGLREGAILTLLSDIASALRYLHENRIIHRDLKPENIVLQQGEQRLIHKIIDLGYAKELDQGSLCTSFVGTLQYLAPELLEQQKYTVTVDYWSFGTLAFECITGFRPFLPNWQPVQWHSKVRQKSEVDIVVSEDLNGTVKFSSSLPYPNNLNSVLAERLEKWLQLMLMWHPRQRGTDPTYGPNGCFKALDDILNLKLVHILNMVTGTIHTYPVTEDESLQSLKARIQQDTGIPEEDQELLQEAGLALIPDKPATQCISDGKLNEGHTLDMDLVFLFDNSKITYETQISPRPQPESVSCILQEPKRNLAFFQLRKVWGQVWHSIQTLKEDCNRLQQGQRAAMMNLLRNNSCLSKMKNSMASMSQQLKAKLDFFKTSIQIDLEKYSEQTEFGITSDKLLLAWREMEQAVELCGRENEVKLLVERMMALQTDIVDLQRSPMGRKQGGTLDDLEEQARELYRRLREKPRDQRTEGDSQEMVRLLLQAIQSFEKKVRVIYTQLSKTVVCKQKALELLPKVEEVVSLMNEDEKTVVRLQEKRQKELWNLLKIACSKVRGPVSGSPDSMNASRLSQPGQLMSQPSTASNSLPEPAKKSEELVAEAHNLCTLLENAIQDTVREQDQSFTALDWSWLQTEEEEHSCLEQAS
Method in brief: (§1)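 First, compounds in DMSO are added at 1 μM to each of 468 kinase assays. Next, RLU signals are normalised between positive control (0%) and DMSO (100%). Finally, kinases under 35% are flagged active.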

KIT = target: T2, KIT (Homo sapiens, UniProt P10721); settings: read-out: % control
T2 construct: purchased KinomeScan®
Method in brief: as §1

FGFR3 = FGFR3 (Homo sapiens, UniProt P22607); settings: FGFR3, 1 μM; read-out: % control
Method in brief: as §1

WNK2 = WNK2 (Homo sapiens, UniProt Q9Y3S1); settings: WNK2, 1 μM; read-out: % control
Method in brief: as §1

RIOK3 = target: T3, RIOK3 (Homo sapiens, UniProt O14730); settings: RIOK3, 1 μM; read-out: % control
T3 sequence (O14730 1-519): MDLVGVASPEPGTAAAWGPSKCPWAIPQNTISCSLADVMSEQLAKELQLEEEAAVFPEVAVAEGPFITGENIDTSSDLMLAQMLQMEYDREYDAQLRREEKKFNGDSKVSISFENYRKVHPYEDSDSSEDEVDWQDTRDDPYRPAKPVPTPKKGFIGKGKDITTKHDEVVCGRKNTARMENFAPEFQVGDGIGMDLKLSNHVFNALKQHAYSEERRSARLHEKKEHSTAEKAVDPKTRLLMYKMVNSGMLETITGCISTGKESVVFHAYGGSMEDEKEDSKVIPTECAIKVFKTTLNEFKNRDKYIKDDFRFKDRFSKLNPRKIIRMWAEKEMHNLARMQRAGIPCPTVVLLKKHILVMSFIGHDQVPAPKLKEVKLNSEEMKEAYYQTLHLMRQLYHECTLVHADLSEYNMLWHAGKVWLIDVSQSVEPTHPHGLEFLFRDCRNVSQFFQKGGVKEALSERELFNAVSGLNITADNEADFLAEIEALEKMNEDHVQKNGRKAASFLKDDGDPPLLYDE
Method in brief: as §1

FLT3(D835H) = target: T4, FLT3(D835H) (Homo sapiens, UniProt P36888, D835H); settings: read-out: % control
T4 sequence (P36888 27-993 D835H): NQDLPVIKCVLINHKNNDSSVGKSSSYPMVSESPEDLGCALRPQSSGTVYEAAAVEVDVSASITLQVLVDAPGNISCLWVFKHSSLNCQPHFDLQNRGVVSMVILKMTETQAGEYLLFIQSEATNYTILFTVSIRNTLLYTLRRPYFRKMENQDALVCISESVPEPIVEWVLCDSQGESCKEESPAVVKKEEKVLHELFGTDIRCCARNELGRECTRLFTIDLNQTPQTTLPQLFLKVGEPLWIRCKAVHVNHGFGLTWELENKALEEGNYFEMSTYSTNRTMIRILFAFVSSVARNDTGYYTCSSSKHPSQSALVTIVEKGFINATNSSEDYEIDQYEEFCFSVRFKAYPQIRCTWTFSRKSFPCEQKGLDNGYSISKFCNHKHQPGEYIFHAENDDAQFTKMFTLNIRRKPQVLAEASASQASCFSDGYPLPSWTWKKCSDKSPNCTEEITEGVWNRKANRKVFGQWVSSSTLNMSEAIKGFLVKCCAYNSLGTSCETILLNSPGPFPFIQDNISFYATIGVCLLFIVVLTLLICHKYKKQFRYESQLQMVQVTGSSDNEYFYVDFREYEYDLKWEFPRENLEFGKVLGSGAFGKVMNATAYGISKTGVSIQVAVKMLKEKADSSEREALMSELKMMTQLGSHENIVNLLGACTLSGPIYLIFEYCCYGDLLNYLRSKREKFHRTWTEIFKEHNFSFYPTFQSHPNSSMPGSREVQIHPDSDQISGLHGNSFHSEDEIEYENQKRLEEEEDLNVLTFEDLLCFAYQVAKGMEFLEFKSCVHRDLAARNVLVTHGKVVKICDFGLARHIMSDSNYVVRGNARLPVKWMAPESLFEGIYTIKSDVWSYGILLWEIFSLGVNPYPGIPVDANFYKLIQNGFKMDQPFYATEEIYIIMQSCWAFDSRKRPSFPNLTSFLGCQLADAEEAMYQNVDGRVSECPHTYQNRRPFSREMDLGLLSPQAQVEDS
Method in brief: as §1

FGFR3, sequence (P22607 23-806): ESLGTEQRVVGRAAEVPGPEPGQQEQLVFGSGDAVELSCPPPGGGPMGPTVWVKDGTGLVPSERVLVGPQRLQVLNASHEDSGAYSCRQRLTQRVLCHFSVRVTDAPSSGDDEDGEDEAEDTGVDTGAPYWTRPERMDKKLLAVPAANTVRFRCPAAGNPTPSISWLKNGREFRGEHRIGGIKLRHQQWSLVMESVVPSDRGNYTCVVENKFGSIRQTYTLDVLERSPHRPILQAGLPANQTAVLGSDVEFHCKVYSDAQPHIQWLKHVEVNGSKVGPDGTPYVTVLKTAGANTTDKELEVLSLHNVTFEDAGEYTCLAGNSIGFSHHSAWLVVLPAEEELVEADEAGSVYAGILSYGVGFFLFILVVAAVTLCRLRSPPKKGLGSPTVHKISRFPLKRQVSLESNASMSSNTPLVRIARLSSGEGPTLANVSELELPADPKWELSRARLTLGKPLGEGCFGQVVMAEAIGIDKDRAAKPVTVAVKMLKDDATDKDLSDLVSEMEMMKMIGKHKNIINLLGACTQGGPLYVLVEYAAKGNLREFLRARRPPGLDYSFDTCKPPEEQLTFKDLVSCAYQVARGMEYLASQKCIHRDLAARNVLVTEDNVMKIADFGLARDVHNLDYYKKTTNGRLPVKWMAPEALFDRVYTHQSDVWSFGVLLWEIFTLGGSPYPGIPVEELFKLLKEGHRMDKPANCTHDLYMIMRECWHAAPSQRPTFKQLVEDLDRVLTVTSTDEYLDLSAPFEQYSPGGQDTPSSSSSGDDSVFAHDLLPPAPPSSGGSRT
WNK2, sequence (Q9Y3S1 whole entry): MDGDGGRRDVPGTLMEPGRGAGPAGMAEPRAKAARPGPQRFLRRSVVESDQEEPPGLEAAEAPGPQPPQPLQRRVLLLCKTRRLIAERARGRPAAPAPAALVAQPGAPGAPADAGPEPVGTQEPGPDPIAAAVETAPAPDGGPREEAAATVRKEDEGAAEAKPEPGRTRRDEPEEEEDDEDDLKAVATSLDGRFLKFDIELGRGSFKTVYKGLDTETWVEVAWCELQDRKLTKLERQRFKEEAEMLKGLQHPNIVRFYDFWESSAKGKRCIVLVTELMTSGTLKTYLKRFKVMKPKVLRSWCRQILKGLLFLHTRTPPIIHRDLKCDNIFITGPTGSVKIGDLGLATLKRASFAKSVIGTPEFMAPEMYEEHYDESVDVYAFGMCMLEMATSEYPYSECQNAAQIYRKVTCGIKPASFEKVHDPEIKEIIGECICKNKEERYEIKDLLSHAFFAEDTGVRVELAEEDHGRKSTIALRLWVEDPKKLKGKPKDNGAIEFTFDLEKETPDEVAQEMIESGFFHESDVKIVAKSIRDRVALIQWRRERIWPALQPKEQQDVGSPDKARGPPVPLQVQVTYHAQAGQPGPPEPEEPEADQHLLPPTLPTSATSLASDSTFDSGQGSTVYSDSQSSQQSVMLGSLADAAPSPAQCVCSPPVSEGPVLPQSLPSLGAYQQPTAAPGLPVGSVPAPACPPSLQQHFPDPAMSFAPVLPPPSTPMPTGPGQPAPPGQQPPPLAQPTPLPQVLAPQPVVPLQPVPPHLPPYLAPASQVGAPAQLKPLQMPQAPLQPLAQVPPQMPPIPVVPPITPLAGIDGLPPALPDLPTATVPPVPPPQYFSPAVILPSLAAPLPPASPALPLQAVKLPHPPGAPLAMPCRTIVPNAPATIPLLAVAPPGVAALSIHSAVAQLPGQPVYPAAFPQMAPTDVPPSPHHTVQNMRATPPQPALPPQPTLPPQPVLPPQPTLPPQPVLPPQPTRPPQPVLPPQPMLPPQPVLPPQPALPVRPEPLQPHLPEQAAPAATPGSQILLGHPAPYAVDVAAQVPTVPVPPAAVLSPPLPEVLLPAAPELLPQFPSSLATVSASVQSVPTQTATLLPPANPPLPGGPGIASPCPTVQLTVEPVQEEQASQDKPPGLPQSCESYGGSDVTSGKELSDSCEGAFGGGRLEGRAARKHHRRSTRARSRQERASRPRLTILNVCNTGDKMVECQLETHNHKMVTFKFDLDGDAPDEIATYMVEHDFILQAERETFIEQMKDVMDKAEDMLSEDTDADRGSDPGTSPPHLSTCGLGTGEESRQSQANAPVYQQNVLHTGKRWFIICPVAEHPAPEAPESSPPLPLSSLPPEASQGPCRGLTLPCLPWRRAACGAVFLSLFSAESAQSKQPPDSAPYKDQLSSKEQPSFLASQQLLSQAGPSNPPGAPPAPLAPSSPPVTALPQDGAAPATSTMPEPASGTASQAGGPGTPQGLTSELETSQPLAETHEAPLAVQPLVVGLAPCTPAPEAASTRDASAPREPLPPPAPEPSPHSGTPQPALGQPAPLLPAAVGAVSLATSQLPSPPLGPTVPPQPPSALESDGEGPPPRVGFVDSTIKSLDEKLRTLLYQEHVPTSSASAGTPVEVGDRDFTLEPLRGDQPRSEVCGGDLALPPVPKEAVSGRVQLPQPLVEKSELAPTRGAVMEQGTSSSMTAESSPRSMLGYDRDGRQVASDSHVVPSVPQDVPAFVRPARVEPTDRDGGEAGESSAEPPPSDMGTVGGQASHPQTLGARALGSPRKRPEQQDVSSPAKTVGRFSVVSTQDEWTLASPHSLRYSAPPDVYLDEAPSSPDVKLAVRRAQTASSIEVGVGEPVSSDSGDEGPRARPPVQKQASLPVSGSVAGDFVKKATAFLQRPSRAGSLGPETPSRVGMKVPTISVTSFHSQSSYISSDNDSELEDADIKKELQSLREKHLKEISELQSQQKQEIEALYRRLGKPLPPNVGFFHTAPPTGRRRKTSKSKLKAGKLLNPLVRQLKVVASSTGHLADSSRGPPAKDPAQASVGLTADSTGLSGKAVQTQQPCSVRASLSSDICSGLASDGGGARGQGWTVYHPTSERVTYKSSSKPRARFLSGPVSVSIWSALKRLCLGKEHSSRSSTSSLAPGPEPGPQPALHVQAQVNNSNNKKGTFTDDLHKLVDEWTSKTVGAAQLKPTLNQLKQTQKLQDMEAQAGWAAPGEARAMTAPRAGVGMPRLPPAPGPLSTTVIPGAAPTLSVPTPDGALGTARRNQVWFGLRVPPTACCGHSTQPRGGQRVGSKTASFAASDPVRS
T2 sequence (P10721 26-976): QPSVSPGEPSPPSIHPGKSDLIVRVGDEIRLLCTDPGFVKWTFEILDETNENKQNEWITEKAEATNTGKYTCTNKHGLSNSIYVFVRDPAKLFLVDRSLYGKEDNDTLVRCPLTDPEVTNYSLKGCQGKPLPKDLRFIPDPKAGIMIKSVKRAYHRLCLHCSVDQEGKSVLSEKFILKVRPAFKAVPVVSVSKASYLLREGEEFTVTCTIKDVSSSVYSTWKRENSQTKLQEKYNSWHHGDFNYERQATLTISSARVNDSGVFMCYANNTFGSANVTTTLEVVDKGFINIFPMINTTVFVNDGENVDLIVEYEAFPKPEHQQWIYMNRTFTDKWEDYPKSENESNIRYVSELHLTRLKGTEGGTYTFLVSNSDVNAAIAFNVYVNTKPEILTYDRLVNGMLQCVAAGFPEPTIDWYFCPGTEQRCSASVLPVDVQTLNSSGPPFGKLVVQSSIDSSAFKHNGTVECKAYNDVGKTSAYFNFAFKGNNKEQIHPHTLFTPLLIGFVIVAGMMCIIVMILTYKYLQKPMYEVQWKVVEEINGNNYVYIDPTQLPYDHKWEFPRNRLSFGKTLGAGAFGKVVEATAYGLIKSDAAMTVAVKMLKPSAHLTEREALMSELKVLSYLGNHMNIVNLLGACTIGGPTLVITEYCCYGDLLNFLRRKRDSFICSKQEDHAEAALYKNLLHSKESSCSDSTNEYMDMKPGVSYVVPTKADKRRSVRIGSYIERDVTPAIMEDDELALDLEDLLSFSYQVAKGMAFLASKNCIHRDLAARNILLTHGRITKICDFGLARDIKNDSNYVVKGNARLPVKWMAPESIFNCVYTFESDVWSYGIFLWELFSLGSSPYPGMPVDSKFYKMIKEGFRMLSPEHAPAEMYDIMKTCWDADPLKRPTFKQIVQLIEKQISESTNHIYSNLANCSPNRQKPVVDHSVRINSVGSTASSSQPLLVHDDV

Row | Structure (SMILES) | remaining binding at 1 µM (IKK-beta) [%] | remaining binding at 1 µM (KIT) [%] | remaining binding at 1 µM (FGFR3) [%] | remaining binding at 1 µM (WNK2) [%] | remaining binding at 1 µM (RIOK3) [%] | remaining binding at 1 µM (FLT3(D835H)) [%]
1 | CNc1c(-c2cnn([C@H]3CCN(C(C)=O)C[C@@H]3F)c2)cnc2[nH]cc(Cl)c12 [Compound 77, 1-((3S,4S)-4-(4-(3-chloro-4-(methylamino)-1H-pyrrolo[2,3-b]pyridin-5-yl)-1H-pyrazol-1-yl)-3-fluoropiperidin-1-yl)ethan-1-one] | 28 | 4.8 | 64 | 92 | 24 | 7.9
2 | CNc1c(-c2ccc(C(=O)N3CCC(N4CCOCC4)CC3)cc2)cnc2[nH]cc(Cl)c12 [Compound 96, (4-(3-chloro-4-(methylamino)-1H-pyrrolo[2,3-b]pyridin-5-yl)phenyl)(4-morpholinopiperidin-1-yl)methanone] | 32 | 11 | 82 | 100 | 36 | 9.9
3 | O=C(c1ccc(-c2cnc3[nH]cc(Cl)c3c2NC2CCCC2)cc1)N1CCC(N2CCOCC2)CC1 [Compound 101, (4-(3-chloro-4-(cyclopentylamino)-1H-pyrrolo[2,3-b]pyridin-5-yl)phenyl)(4-morpholinopiperidin-1-yl)methanone] | 93 | 58 | 67 | 100 | 50 | 41
